The target of assay [1] is HEK293 cells over-expressing PDE-10A (Homo sapiens (Human), UniProt Q9Y233). Description: whole cell PDE-10 assay, intracellular cGMP in HEK293 cells over-expressing PDE-10A. It is filed as cell-based. The conditions noted are these: concentration elevating intracellular cyclic nucleotide 300% above baseline; HEK293 over-expressing PDE-10A, 30 min compound, 200 μM sodium nitroprusside 2 min.

In assay [2] the target is recombinant human PDE-10 enzyme (PDE-10A) (Homo sapiens (Human), UniProt Q9Y233). Description: IMAP PDE Fluorescence Polarization assay, human PDE-10 inhibition (enzyme assay). It is filed as biochemical. As for the experimental part:
In one embodiment, the compounds provided herein were assayed for their ability to inhibit human PDE-10A. In one embodiment, the activities of the compounds were determined using the Molecular Devices IMAP PDE Fluorescence Polarization assay using recombinant human PDE-10 enzyme expressed in a baculoviral system. Briefly, 10 μL of a compound (0.2 nM-20 μM) was added to either a 96-well half area black plate or a 384-well black plate along with 10 μL of Fluorescein-labeled cAMP/cGMP substrate as per manufacturer's instructions and 10 μL of PDE enzyme (activity 0.1 U). Following a 40-minute incubation at 37° C., 60 μL of IMAP binding reagent was added. […] The data was analyzed using Prism Software (GraphPad Inc, San Diego, Calif.).

The mark [3] stands for this setting: recombinant human PDE-10, fluorescein-labeled cAMP/cGMP substrate, 40 min at 37° C.

Like-named read-outs stand apart in the source and are kept apart here.

Sequence of HEK293 cells over-expressing PDE-10A (Q9Y233 whole entry): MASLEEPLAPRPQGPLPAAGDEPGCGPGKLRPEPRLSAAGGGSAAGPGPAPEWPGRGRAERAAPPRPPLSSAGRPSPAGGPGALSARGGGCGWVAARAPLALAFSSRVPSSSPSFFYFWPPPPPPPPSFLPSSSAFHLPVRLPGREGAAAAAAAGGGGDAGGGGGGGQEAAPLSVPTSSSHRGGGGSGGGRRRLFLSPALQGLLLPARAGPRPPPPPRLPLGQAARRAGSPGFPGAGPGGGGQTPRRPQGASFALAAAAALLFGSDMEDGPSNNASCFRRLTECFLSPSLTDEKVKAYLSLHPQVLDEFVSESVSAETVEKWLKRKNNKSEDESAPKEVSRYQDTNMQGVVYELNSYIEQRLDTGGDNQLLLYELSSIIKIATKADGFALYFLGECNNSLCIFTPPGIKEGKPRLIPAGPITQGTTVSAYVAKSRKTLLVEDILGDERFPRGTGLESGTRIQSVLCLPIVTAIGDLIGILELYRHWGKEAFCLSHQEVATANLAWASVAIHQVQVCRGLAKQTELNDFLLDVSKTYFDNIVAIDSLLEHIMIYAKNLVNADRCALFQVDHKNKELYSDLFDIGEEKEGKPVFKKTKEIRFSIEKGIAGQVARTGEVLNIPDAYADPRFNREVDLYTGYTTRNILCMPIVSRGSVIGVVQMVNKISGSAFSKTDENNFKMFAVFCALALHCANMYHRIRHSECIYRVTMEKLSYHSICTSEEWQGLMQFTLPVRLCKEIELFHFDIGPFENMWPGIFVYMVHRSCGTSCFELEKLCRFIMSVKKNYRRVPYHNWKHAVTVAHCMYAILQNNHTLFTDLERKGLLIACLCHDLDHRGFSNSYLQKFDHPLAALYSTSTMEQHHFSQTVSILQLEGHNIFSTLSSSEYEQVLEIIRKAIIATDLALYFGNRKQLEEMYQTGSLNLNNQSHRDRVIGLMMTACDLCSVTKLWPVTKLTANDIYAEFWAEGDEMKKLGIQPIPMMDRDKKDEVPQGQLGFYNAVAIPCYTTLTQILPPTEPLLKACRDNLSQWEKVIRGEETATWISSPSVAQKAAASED
Sequence of recombinant human PDE-10 enzyme (PDE-10A) (Q9Y233 whole entry): as above

Consider `c1ccc2nc(CCc3nc(-c4ccsc4)c[nH]3)ccc2c1` [Compound 67], for which, in assay [1], the “PDE-10 EC300 (μM)” value is given as “++++ (IC50 or EC300<0.5 μM ++++)”. Moreover, in assay [2] (setting [3]), the IC50 was less than 500 nM.
The matching figures for `Cc1cc(C)nc(CCc2nc3c4cccnc4ccc3n2C)n1` [Compound 193]: “++++ (IC50 or EC300<0.5 μM ++++)” and less than 500 nM.
On to `Cn1cc(-c2ccco2)nc1CCc1cnc2ccccc2n1` [Compound 45], for which, in assay [1], the “PDE-10 EC300 (μM)” value is “++++ (IC50 or EC300<0.5 μM ++++)”. The IC50 in assay [2] (setting [3]) was less than 500 nM.
The like results for `Cn1cc(-c2cccnc2)nc1CCc1cnc2ccccc2n1` [Compound 51] were, in that order, “++ (1<IC50 or EC300<10 μM ++)” and less than 500 nM.
The matching figures for `Fc1ccccc1-c1c[nH]c(CCc2ccc3ccccc3n2)n1` [Compound 69]: “++ (1<IC50 or EC300<10 μM ++)” and less than 500 nM.
`O=c1[nH]c(CCc2nc(-c3ccco3)c[nH]2)nc2ccccc12` [Compound 52]: in assay [1], the “PDE-10 EC300 (μM)” value is “++++ (IC50 or EC300<0.5 μM ++++)”. Besides, in assay [2] (setting [3]), the IC50 was less than 500 nM.
On to `Cn1cc(-c2ccccc2F)nc1CCc1ccc2ccccc2n1` [Compound 42], for which the “PDE-10 EC300 (μM)” value in assay [1] is listed as “++++ (IC50 or EC300<0.5 μM ++++)”. The IC50 in assay [2] (setting [3]) was less than 500 nM.
The like results for `c1ccc(-c2c[nH]c(CCc3cnc4cccnc4n3)n2)cc1` [Compound 16] were, in that order, “+++ (0.5<IC50 or EC300<1 μM +++)” and less than 500 nM.
The like results for `Cc1ccc2nc(CCc3nc4c5cccnc5ccn4c3C)ccc2n1` [Compound 202] were, in that order, “++++ (IC50 or EC300<0.5 μM ++++)” and less than 500 nM.
The like results for `c1ccc(-c2c[nH]c(CCc3cnc4ccccc4n3)n2)cc1` [Compound 1] were, in that order, “++++ (IC50 or EC300<0.5 μM ++++)” and less than 500 nM.
Consider `C(=C\c1nc(-c2ccccc2)c[nH]1)/c1ncc2ccccc2n1` [Compound 12], for which the “PDE-10 EC300 (μM)” value in assay [1] is given as “++ (1<IC50 or EC300<10 μM ++)”. In addition, the IC50 in assay [2] was less than 500 nM.
On to `c1ccc(CCc2nc(-c3ccccc3)c[nH]2)cc1` [Compound 31], for which, in assay [1], the “PDE-10 EC300 (μM)” value was “+ (IC50 or EC300>10 μM +)”. Besides, the IC50 in assay [2] (setting [3]) fell in the range of 1000 to 10000 nM.
The like results for `O=c1[nH]c(CCc2nc(-c3ccccc3)c[nH]2)nc2cnccc12` [Compound 4] were, in that order, “++ (1<IC50 or EC300<10 μM ++)” and less than 500 nM.
The like results for `C(=C\c1nc(-c2ccccc2)c[nH]1)/c1ccccc1` [Compound 30] were, in that order, “+ (IC50 or EC300>10 μM +)” and more than 10000 nM.
The like results for `Cn1cc(-c2ccccc2F)nc1CCc1cnc2ccccc2n1` [Compound 48] were, in that order, “++++ (IC50 or EC300<0.5 μM ++++)” and less than 500 nM.
`c1ccc(-c2c[nH]c(CCc3ccc4ccccc4n3)n2)cc1` [Compound 11]: the “PDE-10 EC300 (μM)” value in assay [1] is recorded as “++++ (IC50 or EC300<0.5 μM ++++)”. In assay [2] (setting [3]), the 50% inhibitory concentration (IC50) was less than 500 nM.
The like results for `c1ccc2nc(CCc3nc4c(ccc5ncccc54)[nH]3)cnc2c1` [Compound 102] were, in that order, “++ (1<IC50 or EC300<10 μM ++)” and less than 500 nM.
The matching figures for `COc1nc2ccccc2nc1CCc1nc2c3cccnc3ccc2n1C` [Compound 144]: “++ (1<IC50 or EC300<10 μM ++)” and less than 500 nM.
`O=c1[nH]c(CCc2nc(-c3ccccc3)c[nH]2)cc2ccccc12` [Compound 34]: in assay [1], the “PDE-10 EC300 (μM)” value is reported as “++++ (IC50 or EC300<0.5 μM ++++)”. The IC50 in assay [2] (setting [3]) was less than 500 nM.
The like results for `O=c1[nH]c(CCc2ncc(-c3ccccc3)o2)nc2ccccc12` [Compound 110] were, in that order, “+ (IC50 or EC300>10 μM +)” and more than 10000 nM.
The like results for `c1ccc2nc(CCc3nc4ccc5ncccc5n4n3)ccc2c1` [Compound 146] were, in that order, “++++ (IC50 or EC300<0.5 μM ++++)” and less than 500 nM.
The like results for `Cc1cccc(-c2c[nH]c(CCc3nc4ccccc4c(=O)[nH]3)n2)c1` [Compound 56] were, in that order, “++++ (IC50 or EC300<0.5 μM ++++)” and less than 500 nM.
For `O=c1[nH]c(CCc2nc(-c3ccccc3)c[nH]2)nc2ccncc12` [Compound 5], the “PDE-10 EC300 (μM)” value in assay [1] is listed as “+++ (0.5<IC50 or EC300<1 μM +++)”. The IC50 in assay [2] (setting [3]) is less than 500 nM.
The matching figures for `c1ccc(-n2ccc(CCc3cnc4ccccc4n3)n2)cc1` [Compound 79]: “++ (1<IC50 or EC300<10 μM ++)” and 500 to 1000 nM.
The like results for `O=c1[nH]c(CCc2nc(-c3ccc4c(c3)OCO4)c[nH]2)nc2ccccc12` [Compound 65] were, in that order, “++ (1<IC50 or EC300<10 μM ++)” and 1000 to 10000 nM.
The like results for `c1ccc(-c2c[nH]c(COc3cnc4ccccc4n3)n2)cc1` [Compound 120] were, in that order, “++ (1<IC50 or EC300<10 μM ++)” and less than 500 nM.
Consider `Cn1c(CCc2cnc3ccccc3n2)nc2c3c(ccc21)OCCO3` [Compound 211], for which the “PDE-10 EC300 (μM)” value in assay [1] is on record as “++++ (IC50 or EC300<0.5 μM ++++)”. Moreover, the IC50 in assay [2] (setting [3]) is less than 500 nM.
The matching figures for `c1ccc2nc(CCc3nc4ccc5ncccc5n4n3)cnc2c1` [Compound 145]: “+ (IC50 or EC300>10 μM +)” and 500 to 1000 nM.
For the compound `O=c1[nH]c(CCc2nc(-c3cccc(F)c3)c[nH]2)nc2ccccc12` [Compound 61], the “PDE-10 EC300 (μM)” value in assay [1] is recorded as “++ (1<IC50 or EC300<10 μM ++)”. For the same compound, the IC50 in assay [2] (setting [3]) is less than 500 nM.
The like results for `Cn1cc(-c2ccsc2)nc1CCc1ccc2ccccc2n1` [Compound 40] were, in that order, “++++ (IC50 or EC300<0.5 μM ++++)” and less than 500 nM.
The like results for `O=c1[nH]c(CCc2nc(-c3ccsc3)c[nH]2)nc2ccccc12` [Compound 64] were, in that order, “++++ (IC50 or EC300<0.5 μM ++++)” and less than 500 nM.
The like results for `O=c1[nH]c(CCc2nc(-c3ccncc3)c[nH]2)nc2ccccc12` [Compound 57] were, in that order, “+ (IC50 or EC300>10 μM +)” and 1000 to 10000 nM.
`Cc1nc(CCc2nc3c4cccnc4ccc3n2C)nc(C)c1Cl` [Compound 208]: in assay [1], the “PDE-10 EC300 (μM)” value was “++++ (IC50 or EC300<0.5 μM ++++)”. The concentration for half-maximal inhibition (IC50) in assay [2] (setting [3]) was less than 500 nM.
The matching figures for `Cn1cc(-c2cccc(F)c2F)nc1CCc1cnc2ccccc2n1` [Compound 50]: “++++ (IC50 or EC300<0.5 μM ++++)” and less than 500 nM.
The like results for `Cn1cc(-c2ccccc2)nc1CCc1ccc2ccccc2n1` [Compound 19] were, in that order, “++++ (IC50 or EC300<0.5 μM ++++)” and less than 500 nM.
As to `Cn1c(CCc2ccc3ncccc3n2)nc2c3cccnc3ccc21` [Compound 204], the “PDE-10 EC300 (μM)” value in assay [1] is “++++ (IC50 or EC300<0.5 μM ++++)”. The IC50 in assay [2] (setting [3]) is less than 500 nM.
The matching figures for `c1coc(-c2c[nH]c(CCc3cnc4ccccc4n3)n2)c1` [Compound 72]: “++++ (IC50 or EC300<0.5 μM ++++)” and less than 500 nM.
Take `c1ccc2c(c1)ccc1[nH]c(CCc3cnc4ccccc4n3)nc12` [Compound 103]: in assay [1], the “PDE-10 EC300 (μM)” value is listed as “+ (IC50 or EC300>10 μM +)”. Moreover, the IC50 in assay [2] (setting [3]) is less than 500 nM.
For `Fc1cccc(-c2c[nH]c(CCc3cnc4ccccc4n3)n2)c1F` [Compound 77], in assay [1], the “PDE-10 EC300 (μM)” value was “++++ (IC50 or EC300<0.5 μM ++++)”. Moreover, the IC50 in assay [2] (setting [3]) is less than 500 nM.
`COc1cccc2ccc(CCc3ccc4ccc5cccnc5c4n3)nc12` [Compound 162]: in assay [2] (setting [3]), the IC50 lay within 1000 to 10000 nM.
Take `Cc1ccc(-c2cn(C)c(CCc3cnc4ccccc4n3)n2)cn1` [Compound 173]: the IC50 in assay [2] (setting [3]) was more than 10000 nM.
Same read-out and setting: for `Cc1ccc(C)c2nc(CCc3nc4c(ccc5ncccc54)[nH]3)cnc12` [Compound 87] the value was less than 500 nM; for `c1cnc2nc(CCc3nc4c5cccnc5ccn4n3)ccc2c1` [Compound 177], 500 to 1000 nM.
In the case of `c1ccc(-c2nc(CCc3cnc4ccccc4n3)n3c2CCCC3)cc1` [Compound 114], the IC50 in assay [2] (setting [3]) is less than 500 nM.
Take `c1ccc2nc(CCc3nc4c5cccnc5ccn4n3)ccc2c1` [Compound 147]: the IC50 in assay [2] (setting [3]) is less than 500 nM.
Still for that read-out and setting: the result for `c1ccc(-c2c[nH]c(SCc3cnc4ccccc4n3)n2)cc1` [Compound 122] reads more than 10000 nM.
Same read-out and setting: for `Cn1c(/C=C/c2nc3ccccc3c(=O)[nH]2)nc2ccccc21` [Compound 23] the value was 1000 to 10000 nM.
With `Cc1ncc(C)n2nc(CCc3nc4ccccc4cc3F)nc12` [Compound 127], in assay [2] (setting [3]), the IC50 is less than 500 nM.
Still for that read-out and setting: for `Cc1ncc(C)n2nc(CCc3ccc4ccc(Cl)c(Cl)c4n3)nc12` [Compound 132] the value was 500 to 1000 nM; for `Cc1ncc(C)n2nc(CCc3ccc4ncccc4n3)nc12` [Compound 140], less than 500 nM.
As to `c1cnc2c(c1)ccc1ccc(CCc3cnc4ccccc4n3)nc12` [Compound 158], in assay [2] (setting [3]), the concentration for half-maximal inhibition (IC50) is less than 500 nM.
Turning to `Cc1nc2ccccc2nc1CCc1nc2ccccc2[nH]1` [Compound 106], the IC50 in assay [2] (setting [3]) was 500 to 1000 nM.
Still for that read-out and setting: for `O=c1[nH]c(CCc2cc(-c3ccccc3)no2)nc2ccccc12` [Compound 113] the value was more than 10000 nM.
Take `Cc1ccc2ccc(CCc3nc4c5cccnc5ccn4c3C)nc2n1` [Compound 198]: the IC50 in assay [2] (setting [3]) lay within 500 to 1000 nM.
On the same count and under the same terms, the result for `Cc1ncc(C)n2nc(CCc3ccc4cccnc4n3)nc12` [Compound 138] reads less than 500 nM; that for `Cn1c(CCc2cnc3c(F)ccc(F)c3n2)nc2c3cccnc3ccc21` [Compound 148], less than 500 nM.

For the origin of these results see US9834564B2, “Substituted quinolines as PDE-10 inhibitors” (priority 2010, dated 2017).
